Experiments:
Assay in all cases: relative viability (nuclei count vs DMSO), 5 days (fraction); higher = more cells survive
[1] = compound: Cc1ccc2nc(NCCN)c3ncc(C)n3c2c1
How it was run: (§1)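 MetaXpress counted nuclei in 4× images of lung cancer cell lines that had been fixed, permeabilised and Hoechst-stained in one step. Before that, cells in 1536-well plates were kept overnight at 37 °C, pinned with five √10-spaced library-drug doses on vehicle-anchored plates, and cultured 5 days without medium change. Viability takes treated-well nuclei over vehicle-well nuclei and uses the median across plates. Plates were accepted only at control CV below 25% and at least one doubling.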

[2] = compound: O=C(/C=C/c1ccccc1)NC(NC(=S)Nc1cccc2cccnc12)C(Cl)(Cl)Cl [Salubrinal]
How it was run: as §1

[3] = compound: Cc1ccc2nc(NCCN)c3ncc(C)n3c2c1 + CCNC(=O)c1noc(-c2cc(C(C)C)c(O)cc2O)c1-c1ccc(CN2CCOCC2)cc1 [Luminespib] (partner 0.01 µM)
How it was run: (§2)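 Each reported value is a median over duplicate plates. It expresses relative viability: treated-well nuclei count divided by vehicle-well nuclei count. Lung cancer cell lines in 1536-well plates were dosed by pin tool a day after seeding, alone with one drug or with a fixed anchor-drug dose plus five library-drug doses (not always all listed) in √10 steps, and nuclei were counted after 5 days.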

[4] = compound: Cc1ccc2nc(NCCN)c3ncc(C)n3c2c1 + COc1cc2c(Oc3ccc(NC(=O)C4(C(=O)Nc5ccc(F)cc5)CC4)cc3F)ccnc2cc1OCCCN1CCOCC1 [Foretinib] (partner 0.25 µM)
How it was run: as §2

[5] = compound: Cc1ccc2nc(NCCN)c3ncc(C)n3c2c1 + COc1cccc2cc(-c3nc([C@H]4CC[C@H](C(=O)O)CC4)n4ncnc(N)c34)[nH]c12 [OSI-027] (partner 0.5 µM)
How it was run: as §2

[6] = compound: Cc1ccc2nc(NCCN)c3ncc(C)n3c2c1 + Cc1cc(Nc2cc(N3CCN(C)CC3)nc(Sc3ccc(NC(=O)C4CC4)cc3)n2)n[nH]1 [Tozasertib] (partner 0.1 µM)
How it was run: as §2

[7] = compound: Cc1ccc2nc(NCCN)c3ncc(C)n3c2c1 + Cc1nc(Nc2ncc(C(=O)Nc3c(C)cccc3Cl)s2)cc(N2CCN(CCO)CC2)n1 [Dasatinib] (partner 0.075 µM)
How it was run: as §2

[8] = compound: Cc1ccc2nc(NCCN)c3ncc(C)n3c2c1 + N=C(N)NC(=N)NCCc1ccccc1 [Phenformin] (partner 250 µM)
How it was run: as §2

[9] = compound: O=C(/C=C/c1ccccc1)NC(NC(=S)Nc1cccc2cccnc12)C(Cl)(Cl)Cl [Salubrinal] + CCNC(=O)c1noc(-c2cc(C(C)C)c(O)cc2O)c1-c1ccc(CN2CCOCC2)cc1 [Luminespib] (partner 0.01 µM)
How it was run: as §2

[10] = compound: O=C(/C=C/c1ccccc1)NC(NC(=S)Nc1cccc2cccnc12)C(Cl)(Cl)Cl [Salubrinal] + COc1cc2c(Oc3ccc(NC(=O)C4(C(=O)Nc5ccc(F)cc5)CC4)cc3F)ccnc2cc1OCCCN1CCOCC1 [Foretinib] (partner 0.25 µM)
How it was run: as §2

[11] = compound: O=C(/C=C/c1ccccc1)NC(NC(=S)Nc1cccc2cccnc12)C(Cl)(Cl)Cl [Salubrinal] + COc1cccc2cc(-c3nc([C@H]4CC[C@H](C(=O)O)CC4)n4ncnc(N)c34)[nH]c12 [OSI-027] (partner 0.5 µM)
How it was run: as §2

[12] = compound: O=C(/C=C/c1ccccc1)NC(NC(=S)Nc1cccc2cccnc12)C(Cl)(Cl)Cl [Salubrinal] + Cc1cc(Nc2cc(N3CCN(C)CC3)nc(Sc3ccc(NC(=O)C4CC4)cc3)n2)n[nH]1 [Tozasertib] (partner 0.1 µM)
How it was run: as §2

[13] = compound: O=C(/C=C/c1ccccc1)NC(NC(=S)Nc1cccc2cccnc12)C(Cl)(Cl)Cl [Salubrinal] + Cc1nc(Nc2ncc(C(=O)Nc3c(C)cccc3Cl)s2)cc(N2CCN(CCO)CC2)n1 [Dasatinib] (partner 0.075 µM)
How it was run: as §2

[14] = compound: O=C(/C=C/c1ccccc1)NC(NC(=S)Nc1cccc2cccnc12)C(Cl)(Cl)Cl [Salubrinal] + N=C(N)NC(=N)NCCc1ccccc1 [Phenformin] (partner 250 µM)
How it was run: as §2

## NCI-H1623
[1]; 0.04 µM
  relative viability: 1.01
[1]; 0.1265 µM
  relative viability: 0.838
[1]; 0.4 µM
  relative viability: 0.961
[1]; 1.265 µM
  relative viability: 0.887
[1]; 4 µM
  relative viability: 0.937
[2]; 0.08 µM
  relative viability: 1.08
[2]; 0.253 µM
  relative viability: 1.18
[2]; 0.8 µM
  relative viability: 0.949
[2]; 2.53 µM
  relative viability: 1.1
[2]; 8 µM
  relative viability: 0.997
[3]; first compound 0.04 µM
  relative viability: 0.478
[3]; first compound 0.1265 µM
  relative viability: 0.684
[3]; first compound 0.4 µM
  relative viability: 0.51
[3]; first compound 1.265 µM
  relative viability: 0.346
[3]; first compound 4 µM
  relative viability: 0.348
[4]; first compound 0.04 µM
  relative viability: 0.945
[4]; first compound 0.1265 µM
  relative viability: 0.94
[4]; first compound 0.4 µM
  relative viability: 0.897
[4]; first compound 1.265 µM
  relative viability: 0.761
[4]; first compound 4 µM
  relative viability: 0.79
[5]; first compound 0.04 µM
  relative viability: 0.418
[5]; first compound 0.1265 µM
  relative viability: 0.444
[5]; first compound 0.4 µM
  relative viability: 0.451
[5]; first compound 1.265 µM
  relative viability: 0.39
[5]; first compound 4 µM
  relative viability: 0.425
[6]; first compound 0.04 µM
  relative viability: 0.453
[6]; first compound 0.1265 µM
  relative viability: 0.486
[6]; first compound 0.4 µM
  relative viability: 0.451
[6]; first compound 1.265 µM
  relative viability: 0.355
[6]; first compound 4 µM
  relative viability: 0.354
[7]; first compound 0.04 µM
  relative viability: 0.525
[7]; first compound 0.1265 µM
  relative viability: 0.664
[7]; first compound 0.4 µM
  relative viability: 0.523
[7]; first compound 1.265 µM
  relative viability: 0.482
[7]; first compound 4 µM
  relative viability: 0.494
[8]; first compound 0.04 µM
  relative viability: 0.586
[8]; first compound 0.1265 µM
  relative viability: 0.618
[8]; first compound 0.4 µM
  relative viability: 0.657
[8]; first compound 1.265 µM
  relative viability: 0.684
[8]; first compound 4 µM
  relative viability: 0.567
[9]; first compound 0.08 µM
  relative viability: 0.465
[9]; first compound 0.253 µM
  relative viability: 0.648
[9]; first compound 0.8 µM
  relative viability: 0.541
[9]; first compound 2.53 µM
  relative viability: 0.435
[9]; first compound 8 µM
  relative viability: 0.441
[10]; first compound 0.08 µM
  relative viability: 0.735
[10]; first compound 0.253 µM
  relative viability: 0.787
[10]; first compound 0.8 µM
  relative viability: 0.891
[10]; first compound 2.53 µM
  relative viability: 0.824
[10]; first compound 8 µM
  relative viability: 0.888
[11]; first compound 0.08 µM
  relative viability: 0.482
[11]; first compound 0.253 µM
  relative viability: 0.387
[11]; first compound 0.8 µM
  relative viability: 0.544
[11]; first compound 2.53 µM
  relative viability: 0.386
[11]; first compound 8 µM
  relative viability: 0.44
[12]; first compound 0.08 µM
  relative viability: 0.431
[12]; first compound 0.253 µM
  relative viability: 0.434
[12]; first compound 0.8 µM
  relative viability: 0.445
[12]; first compound 2.53 µM
  relative viability: 0.396
[12]; first compound 8 µM
  relative viability: 0.412
[13]; first compound 0.08 µM
  relative viability: 0.475
[13]; first compound 0.253 µM
  relative viability: 0.485
[13]; first compound 0.8 µM
  relative viability: 0.54
[13]; first compound 2.53 µM
  relative viability: 0.514
[13]; first compound 8 µM
  relative viability: 0.572
[14]; first compound 0.08 µM
  relative viability: 0.522
[14]; first compound 0.253 µM
  relative viability: 0.564
[14]; first compound 0.8 µM
  relative viability: 0.61
[14]; first compound 2.53 µM
  relative viability: 0.578
[14]; first compound 8 µM
  relative viability: 0.551

Reference: the supplement of paper PMC10307832
